“And” between values parts separate entries of the source, which are not always exact repeats. Equal entries are not always repeated.
Tests used:
duplex ds26 DNA = experiment: TO G4-FID assay; type: binding; settings: ds26, K+100 buffer
Description: (§1) For the G4-FID assay, the oligonucleotides were dissolved in K^+100 buffer (10 mM lithium cacodylate buffer pH 7.3, 100 mM KCl, 1% DMSO). Oligonucleotide concentrations were determined on the basis of their absorbance at 260 nm. For the fluorimetric titration, the oligonucleotides were dissolved in K^+100 buffer without DMSO. For the FRET-melting assay, the oligonucleotides were dissolved in K^+1 buffer (10 mM lithium cacodylate buffer pH 7.3, 1 mM KCl, 99 mM LiCl) except for F-21-T. F-21-T was dissolved in K^+10 buffer (10 mM lithium cacodylate buffer pH 7.3, 10 mM KCl, 90 mM LiCl).
(§2) Prior to use, all oligonucleotides were pretreated by heating at 95 °C for 5 min, then rapidly cooled to 4 °C to favor the intramolecular folding by kinetic trapping. Duplex-DNA ds26 was prepared by heating the self-complementary strand at 90 °C for 5 min in K^+1 buffer followed by a slow cooling over 6 h.
Each G4-FID assay was performed in a 96-well Non-Binding Surface black with black bottom polystyrene microplates (Corning). Every ligand was tested on a line of the microplate, in duplicate. […] After 5 min of orbital shaking at 500 rpm, fluorescence is measured using the following experimental parameters: positioning delay of 0.5 s, 20 flashes per well, emission/excitation filters for TO at 485/520, TO-PRO-3 at 620/670, and PhenDV at 355/520 gain adjusted at 80% of the fluorescence from the most fluorescent well (i.e., a well from column A for TO and a well from column H).
(§3) The percentage of TO displacement is calculated from the fluorescence intensity (F), using (1) % TO displacement=1−F/F0 where F0 is the fluorescence from the fluorescent probe bound to DNA without added ligand.
The PhenDV displacement is calculated from the fluorescence intensity F; F(ligand+probe), which refers to the fluorescence of the probe in presence of the ligand (without G4); and F0, which is the fluorescence without added ligand. The term F(ligand+probe) is necessary as the ligand can quench the fluorescence of the probe. […]

[1] = system: 21CTA human telomeric sequence variant G4; type: binding; settings: PhenDV 1.5 eq, K+100 buffer
Description: as §1, §2
(§4) Each G4-FID assay was performed in a 96-well Non-Binding Surface black with black bottom polystyrene microplates (Corning). Every ligand was tested on a line of the microplate, in duplicate. The microplate was filled with (a) K^+100 solution (qs for 200 μL), (b) 10 μL of a solution of pre-folded oligonucleotides (5 μM) and fluorescent probe (TO/TO-PRO-3 (10 μM—2 eq) or PhenDV (7,5 µM—1.5 eq)), and (c) an extemporaneously prepared 5 μM ligand solution in K^+100 buffer (0 to 100 μL) along the line of the microplate, i.e., from column A to column H: 0, 0.125, 0.25, 0.375, 0.5, 0.625, 0.75, 1.0, 1.25, 1.5, 2.0, and 2.5 μM. After 5 min of orbital shaking at 500 rpm, fluorescence is measured using the following experimental parameters: positioning delay of 0.5 s, 20 flashes per well, emission/excitation filters for TO at 485/520, TO-PRO-3 at 620/670, and PhenDV at 355/520 gain adjusted at 80% of the fluorescence from the most fluorescent well (i.e., a well from column A for TO and a well from column H).
(§5) In the case of PhenDV, the fluorescence of the unbound probe is not negligible. The percentage of displacement becomes (2) % PhenDV Displacement=F−F0/Fligand+probe−F0
(§6) The PhenDV displacement is calculated from the fluorescence intensity F; F(ligand+probe), which refers to the fluorescence of the probe in presence of the ligand (without G4); and F0, which is the fluorescence without added ligand. The term F(ligand+probe) is necessary as the ligand can quench the fluorescence of the probe. The percentage of displacement is then plotted as a function of the concentration of the added ligand. The DNA affinity was evaluated by the concentration of ligand required to decrease the fluorescence of the probe by 50%, was noted DC50, and was determined after non-linear fitting of the displacement curve.

[2] = system: CEB25-WT minisatellite sequence G4; experiment: PhenDV G4-FID assay; type: binding; settings: PhenDV 1.5 eq, K+100 buffer
Description: as §1, §2, §4, §5, §6

c-myc G4 = experiment: PhenDV G4-FID assay; type: binding; settings: PhenDV 1.5 eq, K+100 buffer
Description: as §1, §2, §4, §5, §6

[3] = system: 22AG human telomeric sequence G4; experiment: PhenDV G4-FID assay; type: binding; settings: PhenDV 1.5 eq, K+100 buffer
Description: as §1, §2, §4, §5, §6

[4] = system: 22AG (DNA, G4) AGGGTTAGGGTTAGGGTTAGGG; experiment: G4-FID, thiazole orange displacement; settings: 100 mM KCl; 10 mM lithium cacodylate pH 7.3, 1% DMSO; thiazole orange displaced; 1 µM compound, 0.25 µM DNA
c-myc G4 DNA = experiment: Platination of c-myc followed by denaturing gel electrophoresis; type: biochemical; settings: for platination of c-myc during melting temperature experiments: 0.2 µM c-myc, 1 µM complex, 25 to 95 °C gradient, K+1 buffer; for selectivity of platination, c-myc G4 vs duplex ds26 (competition kinetics): c-myc 0.2 µM, ds26 10 µM; for platination products on gel electrophoresis: c-myc 100 µM, 18 h at 32 °C, K+100 buffer
Description: The five platinum complexes were incubated for 18 h at 32 °C with pre-folded 5’-end ^32P radiolabeled c-myc DNA (10 or 100 µM) and loaded on denaturing polyacrylamide gel electrophoresis (Figure 4).
Two main accelerated bands (A1 and A2) were detected for Pt-ttpy and three were detected for Pt-tpy (B1, B2, and B3) in the presence of 10 µM of DNA. However, for Pt-BisQ, two accelerated bands (C1 and C2) and one retarded band (C3) were only detected at higher DNA concentration (100 µM). It is noteworthy that c-myc platination products migrate faster that the non-platinated G4, resulting in a stark contrast if compared to 22AG in which platination products migrate slower (Figure 2): this is due to the presence of the still folded G4 structures that resist to denaturation, as already found. […] The platination sites of Pt-ttpy, Pt-tpy, and Pt-BisQ were determined by 3’-exonuclease digestion, which stops at the platinated base, followed by a de-platination treatment of the digested fragments with NaCN (Figures S6 and S7). The exact length of the digested de-platinated fragment was deduced from its migration compared with the one of a digestion ladder of the c-myc sequence on a denaturating gel electrophoresis.
The oligonucleotides were 5’-end-labelled using a polynucleotide kinase and (γ^32P)-ATP (Perkin Helmer). The reaction products were purified by electrophoresis on 20% denaturing gel. Sample platinations were prepared by folding a mixture of 5’-end-radiolabeled DNA and 10 µM or 100 µM of non-radiolabeled material in 100 mM KClO4 or 100 mM KCl solution except for the platination reaction in the denaturing temperature conditions. The folding was achieved by heating the samples at 90 °C for 5 min, followed by slow cooling to room temperature over the course of 2 h to induce the formation of the quadruplex structure. It was then incubated with platinum complexes, and platinated products were separated by electrophoresis on 15% denaturing gel. They were then eluted from gel, precipitated, treated by 3’-exonuclease at 37 °C for 30 min, and loaded on a 20% denaturing gel. The digested fragments were eluted from this gel precipitated, treated over night by NaCN 0.2M, precipitated, and loaded once again on a 20% denaturing gel. Gels were scanned using a STORM860 (Molecular Dynamics).

[5] = system: G4 structures (22AG, c-myc, 21CTA, CEB25-WT); experiment: TO-PRO-3-G4-FID assay, G4 structures; type: binding
Description: as §1, §2, §4, §3, §6

SMILES | % of TO displacement at 1 µM of ligand (duplex ds26 DNA) | % of PhenDV displacement at 1 µM of ligand [1] [%] | % of PhenDV displacement at 1 µM of ligand [2] [%] | % of PhenDV displacement at 1 µM of ligand (c-myc G4) [%] | % of PhenDV displacement at 1 µM of ligand [3] [%] | % TO displacement [4] [%] | platination of c-myc during melting temperature experiments (c-myc G4 DNA) | selectivity of platination, c-myc G4 vs duplex ds26 (competition kinetics) (c-myc G4 DNA; K+10 buffer) | incubation time to metallate a large amount of c-myc* (c-myc G4 DNA; c-myc* 0.2 µM, K+10 buffer, 25 °C) [min] | TO-PRO-3 displacement [5] | platination products on gel electrophoresis (c-myc G4 DNA)
Cc1ccc(-c2cc(-c3ccccn3)nc(-c3ccccn3)c2)cc1.[Cl-].[Cl][Pt+] [Pt-ttpy] | < 20% | 90 | 45 | 22 | 63 | > 80 | clearly platinate | high selectivity | ≤ 120 | – | –
[Cl-].[Cl][Pt+].c1ccc(-c2cccc(-c3ccccn3)n2)nc1 [Pt-tpy] | – | 35 | 13 | 5 | 24 | – | clearly platinate | low binding selectivity | – | weak displacement | –
CN(C)CCCNCc1ccc(-c2cc(-c3ccccn3)nc(-c3ccccn3)c2)cc1.[Cl-].[Cl][Pt+] [Pt-ctpy] | < 20% and 17% | 100 | 72 | 29 | 84 | > 80 | – | – | – | – | Non-defined platination products
CN(C)c1ccc(/C=C/c2cc(-c3ccccn3)nc(-c3ccccn3)n2)cc1.[Cl-].[Cl][Pt+] [Pt-vpym, Chloro-(E)-4-(2-(2,6-di(pyridin-2-yl)pyrimidin-4-yl)vinyl)-N,N-dimethylaniline-platinum(II) Chloride] | – | – | – | – | – | – | – | – | – | 30% | Non-defined platination products
[Cl-].[Cl][Pt+].c1ccc(-c2cc(-c3ccc(OCCN4CCCC4)cc3)nc(-c3ccccn3)n2)nc1 [Pt-cpym, Chloro-(2,4-di(pyridin-2-yl)-6-(4-(2-(pyrrolidin-1-yl)ethoxy)phenyl)pyrimidine)-platinum(II) Chloride] | 2% | 72 | 33 | 3 | 43 | < 60 | – | – | – | weak displacement | Non-defined platination products
